The subject of one data set is erythrocyte. Type of data set: cell-based. The following applies: 37° C., 1 h. Here is the method:
Human blood was collected in 10 mL Vacutainer tubes containing potassium-EDTA as anticoagulant. The blood from each vacutainer was transferred to a 50 mL centrifuge tube and the cells washed three times with calcium- and magnesium-free phosphate buffered saline (PBS) (Gibco) by centrifugation at 2000×g for 15 min. The third supernatant was clear and colourless. Cells were stored in PBS for up to two weeks. The cell suspension in PBS (0.5 mL) was mixed with a stock solution of test substance (0.5 mL) at the appropriate concentration (final erythrocyte concentration of approx. 0.5×10^9 per mL). The mixtures were incubated at 37° C. for 1 h with gentle shaking, then centrifuged at 2000×g for 10 min. The supernatant was diluted 10-fold with PBS and the optical density measured at 540 nm. The values for 0% and 100% lysis were determined by incubating cells with PBS or 0.1% Triton X-100 (in water), respectively. Assays were carried out in triplicate.

For a further data set, the system named is M. canis. In words: Susceptibility of dermatophytes, broth microdilution NCCLS M38-P. Type of data set: cell-based. The following applies: for MIC: Microsporum canis. Here is the method:
(§1) Isolates were tested using the method described in the National Committee for Clinical Laboratory Standards (NCCLS) document M38-P for filamentous fungi, with dermatophyte specific modifications described by Fernández-Torres et al, Current topics in Medical Mycology, 14-19 Feb. 1999.
(§2) Five dermatophyte isolates were, namely; T. rubrum, T. mentagrophytes, T. tonsurans, M. canis and M. gypseum, all of which produce lipases and some, phospholipase. These isolates were tested by the broth microdilution method according to NCCLS document M38-P, for activity against selected antifungal agents. In addition, ten randomly selected isolates of T. tonsurans were also tested. All isolates were maintained on SDA at 28° C. Candida parapsilosis (ATCC 20019) was used as the reference control is organism.
(§3) The microdilution plates used were a single lot of RPMI 1640 basal medium (JRH bioScience Inc. Lenexa, Kans., USA) with L-glutamine and without sodium bicarbonate, buffered to pH 7.0, at 25° C., with 0.165 M (MOPS) morpholinepropanesulfonic acid (Sigma).
(§4) Powdered drugs were dissolved in 100% dimethyl sulfoxide (DMSO), at concentrations 100 times higher than the final test concentration. All compounds were prepared in 100% (DMSO). For ITRA and TRB, two-fold drug dilutions were prepared in 100% DMSO at 100 times the final concentration, followed by further dilution 1:50 in RPMI medium, to yield 2× the final strength required for the test.
(§5) Fungal cultures were subcultured onto Potato Dextrose Agar and grown at 28° C. for 7-10 days. Fungal suspensions were covered with 5 ml of distilled water, and then colonies were scraped off with cotton tipped swabs. The resulting mixture of conidia and hyphae elements was withdrawn, transferred to a sterile tube and then vortexed with glass beads. After the particles settled, the upper homogeneous suspension was collected and its density adjusted by a densitometer to a 0.5 McFarland standard at the wavelength of 530 nm (80-85% transmittance). These stock suspensions were then diluted 1:50 with RPMI medium to obtain final working inoculum concentration ranging from 0.3×10^4 to 9×10^4 CFU/ml. Inoculum quantification was performed by plating 100 μl of the 1:1000 dilution of the adjusted inoculum on SDA plates, incubated at 28° C., and after 7 days of incubation, the colonies were counted.
(§6) Testing was based on NCCLS M38-P document for testing filamentous moulds. Testing was carried out in sterile 96-well flat bottomed microtitre plate. Columns 1 and 3 to 12 were filled with 100 μl of RPMI medium, leaving column 2 unfilled. Columns 1, 2 and 3 were filled with 100 μl of 2× drug concentration. Serial dilutions were then made by transferring 100 μl from column 3 to each column up to column 11, and 100 μl from column 11 was discarded. Column 12 served as drug free growth control. Finally, 100 μl of inoculum suspension was added to all wells except column 1, which acted as sterility control (Columns 1 and 12 served as sterility and growth control respectively). Plates were incubated at 28° C. for 7 days, and read at 3 days and 7 days of incubation. All testing was performed in duplicate, on three separate occasions.
(§7) Growth in microtitre trays were read by visual inspection by using an illuminated-reversed mirror. Growth in each well was compared with the “growth control” drug free well. The MIC end point for all the drugs was chosen to be the first well with 100% growth inhibition (i.e. the lowest drug concentration inhibiting growth).
On the technique in general: In broth dilution the organism is exposed to a series of concentrations in liquid medium.

A further data set has as its system M. gypseum. Described as above. Type of data set: cell-based. To be noted: for MIC: Nannizzia gypsea. Here is the method: as §1, §2, §3, §4, §5, §6, §7
The subject of the next data set is T. rubrum. The data set is described as above. Type of data set: cell-based. To be noted: for MIC: Trichophyton rubrum. Here is the method: as §1, §2, §3, §4, §5, §6, §7
Another data set has as its system T. tonsurans. The data set is described as above. Type of data set: cell-based. The following applies: for MIC: Trichophyton tonsurans. Here is the method:
as §1, §2, §3, §4, §5, §6, §7

The target in data set [1] is T1, Porcine pancreatic phospholipase A2 (Sus scrofa, UniProt P00592).
T1 construct: purchased Sigma, St. Louis MO, USA
In words: Pancreatic phospholipase assay. Type of data set: biochemical. To be noted: read-out: ppPLA2, percentage inhibition of activity. Here is the method:
Pancreatic phospholipase assay. Porcine pancreatic phospholipase A2 suspension in 3.2M ammonium sulfate (2.9 mg protein/mL, Sigma St.Louis Mo., USA) was used. One part of well mixed enzyme suspension was added to 4 parts of buffer (10 mM Tris/HCl, pH 8.2; 10 mM CaCl2. Activity and inhibition by test compounds was then measured by the radiometric method described in Example 2 for fungal PLB activity. However, 25 μL enzyme solution was used, and the reaction time was 1 hour. These conditions result in ˜60% substrate conversion in the inhibitor-free control.

For data set [2], the system named is two strains of C. neoformans and one strain of Candida albicans. Kind of data set: Standardised serial dilution sensitivity test, results stated over all strains. Type of data set: cell-based. Here is the method:
Antifungal susceptibility testing. The antifingal activity of the compounds was measured by a standard microdilution method. […] The fungal strains tested included Cryptococcus neoformans H99, Cryptococcus neoformans ATCC 90112 and Candida albicans ATCC 10231. All tests were performed in duplicate.

The next data set concerns T. mentagrophytes. In words: Susceptibility of dermatophytes, broth microdilution NCCLS M38-P. To be noted: 100% growth inhibition, 28° C.; for MIC: Trichophyton mentagrophytes. Type of data set: cell-based. Here is the method: as §1, §2, §3, §4, §5, §6, §7

Several values for one entry are separate records, joined by “and”; a condition that tells them apart may be missing. Equal values may be shown once. Read-outs that look alike come from different tables or passages of the source.

T1 sequence (P00592 23-146): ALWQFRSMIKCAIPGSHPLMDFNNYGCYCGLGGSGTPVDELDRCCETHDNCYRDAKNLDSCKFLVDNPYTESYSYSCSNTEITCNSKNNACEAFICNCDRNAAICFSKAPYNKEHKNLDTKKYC

Take `CCCC[N+](CCCC)(CCCC)CCCCCCCCCCCC[N+](CCCC)(CCCC)CCCC` [1,12-Bis-(tributylammonium)dodecane dichloride]: the “Haemolytic assay (%)” value with erythrocyte (3.5 μM) was 0%; in the data set with erythrocyte (35 μM), 0%; in the data set on erythrocyte (88 μM) it was 0%; in the data set with erythrocyte (175 μM), 5%; in the data set on erythrocyte (350 μM), 100%. In addition, the MIC (in general, the lowest concentration found to suppress growth) was 5.7 µg/mL and 9.4 µM with M. canis (Table 9, read-out: MIC M. canis); 3.8 µg/mL and 6.3 µM with M. gypseum (Table 9, read-out: MIC M. gypseum); 5.7 µg/mL and 9.4 µM in the data set on T. rubrum (Table 9, read-out: MIC T. rubrum); 3.8 µg/mL and 6.2 µM with T. tonsurans (Table 9, read-out: MIC T. tonsurans).

Take `CCCC[P+](CCCC)(CCCC)CCCCCCCCCCCC[P+](CCCC)(CCCC)CCCC` [Compound 1, 1,12-bis(tributylphosphonium)dodecane dibromide]: the inhibition – broadly, how much of the control response was suppressed – at 0.25 µM in data set [1] is 0%. In addition, in data set [1], the inhibition at 2.5 µM stood at 5%. Further, the inhibition at 25 µM in data set [1] was found to be 62%. Also, in data set [1], the inhibition at 250 µM stood at 97%. For the same compound, the “Haemolytic assay (%)” value turned out to be 0% in the data set with erythrocyte (3.5 μM); 0% in the data set with erythrocyte (35 μM); 0% in the data set on erythrocyte (88 μM); 0% in the data set with erythrocyte (175 μM); 0% with erythrocyte (350 μM); 75% in the data set on erythrocyte (700 μM).

Take `CCCC[N+](CCCC)(CCCC)CCCCCCCCCCCC[N+](CCCC)(CCCC)CCCC` [Compound 3, 1,12-bis(tributylammonium)do-decane dibromide]: the inhibition at 0.25 µM in data set [1] was found to be 0%. Further, the inhibition at 2.5 µM in data set [1] was 0%. In data set [1], the inhibition at 25 µM was 36%. Also, the inhibition at 250 µM in data set [1] came out at 86%. The “antifungal / fungicidal activity, in words” value in data set [2] is “fungicidal activity”. Also, the “MIC Range, M. canis” value against M. canis (100% growth inhibition, 28° C.) fell in the range of 3.8 to 7.6 µg/mL. Also, the minimal inhibitory concentration (MIC) with M. canis (100% growth inhibition, 28° C., read-out: MIC GM, M. canis) turned out to be 6.03 µg/mL; in the data set on M. canis (100% growth inhibition, 28° C., read-out: MIC Mean, M. canis), 6.33 µg/mL; in the data set with M. gypseum (100% growth inhibition, 28° C., read-out: MIC GM, M. gypseum), 3.8 µg/mL; in the data set on M. gypseum (100% growth inhibition, 28° C., read-out: MIC Mean, M. gypseum), 4.75 µg/mL; in the data set on T. mentagrophytes (read-out: MIC GM, T. mentagrophyte) it was 3.8 µg/mL; with T. mentagrophytes (read-out: MIC Mean, T. mentagrophyte), 3.8 µg/mL. The MIC in the data set with T. rubrum (100% growth inhibition, 28° C., read-out: MIC GM, T. rubrum) came out at 5.37 µg/mL; in the data set with T. rubrum (100% growth inhibition, 28° C., read-out: MIC Mean, T. rubrum), 5.7 µg/mL; with T. tonsurans (100% growth inhibition, 28° C., read-out: MIC GM, T. tonsurans), 3.38 µg/mL; with T. tonsurans (100% growth inhibition, 28° C., read-out: MIC Mean, T. tonsurans), 3.8 µg/mL. Besides, the “MIC Range, M. gypseum” value against M. gypseum (100% growth inhibition, 28° C.) lay within 1.9 to 7.6 µg/mL. Further, in the data set with T. mentagrophytes, the “MIC Range, T. mentagrophyte” value worked out at 3.8 µg/mL. Moreover, the “MIC Range, T. rubrum” value against T. rubrum (100% growth inhibition, 28° C.) was 3.8 to 7.6 µg/mL. For the same compound, in the data set on T. tonsurans (100% growth inhibition, 28° C.), the “MIC Range, T. tonsurans” value lay in the range of 1.9 to 7.6 µg/mL.
